Test results from ChEMBL document CHEMBL3784984, “Cyclolinopeptides, cyclic peptides from flaxseed with osteoclast differentiation inhibitory activity” (Bioorg Med Chem Lett, 2016).
Non-standard residues stand in square brackets, D forms with d. Residues, ends and D or L forms follow the SMILES beside them. Met(O) = CS(=O)CC[C@H](N)C(=O)O

Experiments:
Bone marrow cell = assay: Inhibition of RANKL-induced osteoclast differentiation in ICR mouse bone marrow cells after 48 hrs by TRAP assay; type: functional, cell-based
[1] = Cytotoxicity against ICR mouse bone marrow cells assessed as cell viability after 24 hrs by MTT assay; type: cell-based

CC[C@H](C)[C@@H]1NC(=O)[C@H](C(C)C)NC(=O)[C@H](Cc2ccccc2)NC(=O)[C@H](Cc2ccccc2)NC(=O)[C@@H]2CCCN2C(=O)[C@@H]2CCCN2C(=O)[C@H]([C@@H](C)CC)NC(=O)[C@H](CC(C)C)NC(=O)[C@H](CC[S+](C)[O-])NC1=O (stereo not given in full) (cyclo(FFVI[Met(O)]LIPP))
IC50 (Bone marrow cell): 14.9 µM | Activity [1]: Non-toxic

CC[C@H](C)[C@@H]1NC(=O)[C@H](Cc2c[nH]c3ccccc23)NC(=O)[C@H](Cc2ccccc2)NC(=O)[C@H](Cc2ccccc2)NC(=O)[C@@H]2CCCN2C(=O)[C@H](CC[S+](C)[O-])NC(=O)[C@H](CC(C)C)NC(=O)[C@H](CCSC)NC1=O (stereo not given in full) (cyclo(FFWIML[Met(O)]P))
IC50 (Bone marrow cell): 4.67 µM | Activity [1]: Non-toxic

CC[C@H](C)[C@@H]1NC(=O)[C@H](C(C)C)NC(=O)[C@H](Cc2ccccc2)NC(=O)[C@H](Cc2ccccc2)NC(=O)[C@@H]2CCCN2C(=O)[C@@H]2CCCN2C(=O)[C@H]([C@@H](C)CC)NC(=O)[C@H](CC(C)C)NC(=O)[C@H](CCSC)NC1=O (cyclo(FFVIMLIPP))
IC50 (Bone marrow cell): 5.53 µM | Activity [1]: Non-toxic

CSCC[C@@H]1NC(=O)[C@H](C(C)C)NC(=O)[C@H](Cc2c[nH]c3ccccc23)NC(=O)[C@H](Cc2ccccc2)NC(=O)[C@H](Cc2ccccc2)NC(=O)[C@@H]2CCCN2C(=O)[C@H](CCSC)NC(=O)[C@H](CC(C)C)NC1=O (cyclo(FFWVMLMP))
IC50 (Bone marrow cell): 0.6 µM | Activity [1]: Non-toxic

CC[C@H](C)[C@@H]1NC(=O)[C@H](Cc2c[nH]c3ccccc23)NC(=O)[C@H](Cc2ccccc2)NC(=O)[C@H](Cc2ccccc2)NC(=O)[C@@H]2CCCN2C(=O)[C@H](CCSC)NC(=O)[C@H](CC(C)C)NC(=O)[C@H](CC[S+](C)[O-])NC1=O (stereo not given in full) (cyclo(FFWI[Met(O)]LMP))
IC50 (Bone marrow cell): 0.83 µM | Activity [1]: Non-toxic

CC(C)C[C@@H]1NC(=O)[C@H](CC[S+](C)[O-])NC(=O)[C@H](C(C)C)NC(=O)[C@H](Cc2c[nH]c3ccccc23)NC(=O)[C@H](Cc2ccccc2)NC(=O)[C@H](Cc2ccccc2)NC(=O)[C@@H]2CCCN2C(=O)[C@H](CC[S+](C)[O-])NC1=O (stereo not given in full) (cyclo(FFWV[Met(O)]L[Met(O)]P))
IC50 (Bone marrow cell): 0.58 µM | Activity [1]: Non-toxic

CC[C@H](C)[C@@H]1NC(=O)[C@H](Cc2c[nH]c3ccccc23)NC(=O)[C@H](Cc2ccccc2)NC(=O)[C@H](Cc2ccccc2)NC(=O)[C@@H]2CCCN2C(=O)[C@H](CC(C)C)NC(=O)[C@H](CC(C)C)NC(=O)[C@H](CC[S+](C)[O-])NC1=O (stereo not given in full) (cyclo(FFWI[Met(O)]LLP))
IC50 (Bone marrow cell): 3.86 µM | Activity [1]: Non-toxic

CC[C@H](C)[C@@H]1NC(=O)[C@H](Cc2ccccc2)NC(=O)[C@H](CC(C)C)NC(=O)[C@@H]2CCCN2C(=O)[C@H](Cc2ccccc2)NC(=O)[C@H](C(C)C)NC(=O)[C@H](CC(C)C)NC(=O)[C@H](CCSC)NC1=O (cyclo(FIMLVFPL))
IC50 (Bone marrow cell): 15.3 µM | Activity [1]: Non-toxic

CSCC[C@@H]1NC(=O)[C@H](C(C)C)NC(=O)[C@H](Cc2c[nH]c3ccccc23)NC(=O)[C@H](Cc2ccccc2)NC(=O)[C@H](Cc2ccccc2)NC(=O)[C@@H]2CCCN2C(=O)[C@H](CC[S+](C)[O-])NC(=O)[C@H](CC(C)C)NC1=O (stereo not given in full) (cyclo(FFWVML[Met(O)]P))
IC50 (Bone marrow cell): 0.47 µM | Activity [1]: Non-toxic

CC[C@H](C)[C@@H]1NC(=O)[C@H](Cc2c[nH]c3ccccc23)NC(=O)[C@H](Cc2ccccc2)NC(=O)[C@H](Cc2ccccc2)NC(=O)[C@@H]2CCCN2C(=O)[C@H](CCSC)NC(=O)[C@H](CC(C)C)NC(=O)[C@H](CCSC)NC1=O (cyclo(FFWIMLMP))
IC50 (Bone marrow cell): 0.49 µM | Activity [1]: Non-toxic

CC(C)Oc1ccc2c(=O)c(-c3ccccc3)coc2c1 [IPRIFLAVONE]
IC50 (Bone marrow cell): 17.2 µM

CC[C@H](C)[C@@H]1NC(=O)[C@H](CC(C)C)NC(=O)[C@H](Cc2ccccc2)NC(=O)[C@H](Cc2ccccc2)NC(=O)[C@@H]2CCCN2C(=O)[C@@H]2CCCN2C(=O)[C@H](C(C)C)NC(=O)[C@H](CC(C)C)NC(=O)[C@H]([C@@H](C)CC)NC1=O [CYCLOLINOPEPTIDE A] (cyclo(FFLIILVPP))
IC50 (Bone marrow cell): 12.2 µM | Activity [1]: Non-toxic

CC[C@H](C)[C@@H]1NC(=O)[C@H](Cc2ccccc2)NC(=O)[C@H](CC(C)C)NC(=O)[C@@H]2CCCN2C(=O)[C@H](Cc2ccccc2)NC(=O)[C@H](C(C)C)NC(=O)[C@H](CC(C)C)NC(=O)[C@H](CC[S+](C)[O-])NC1=O (stereo not given in full) (cyclo(FI[Met(O)]LVFPL))
IC50 (Bone marrow cell): > 20 µM | Activity [1]: Non-toxic

COc1cc(/C=C/C(=O)CC(=O)/C=C/c2ccc(O)c(OC)c2)ccc1O [CURCUMIN]
IC50 (Bone marrow cell): 7.5 µM

CC[C@H](C)[C@@H]1NC(=O)[C@H](Cc2c[nH]c3ccccc23)NC(=O)[C@H](Cc2ccccc2)NC(=O)[C@H](Cc2ccccc2)NC(=O)[C@@H]2CCCN2C(=O)[C@H](CC[S+](C)[O-])NC(=O)[C@H](CC(C)C)NC(=O)[C@H](CC[S+](C)[O-])NC1=O (stereo not given in full) (cyclo(FFWI[Met(O)]L[Met(O)]P))
IC50 (Bone marrow cell): 4.04 µM | Activity [1]: Non-toxic

CSCC[C@@H]1NC(=O)[C@H](CC(C)C)NC(=O)[C@H](CC[S+](C)[O-])NC(=O)[C@H](C(C)C)NC(=O)[C@H](Cc2c[nH]c3ccccc23)NC(=O)[C@H](Cc2ccccc2)NC(=O)[C@H](Cc2ccccc2)NC(=O)[C@@H]2CCCN2C1=O (stereo not given in full) (cyclo(FFWV[Met(O)]LMP))
IC50 (Bone marrow cell): 0.59 µM | Activity [1]: Non-toxic
